Experimental data: patent US20020156084A1, “Use of N-benzyl piperazine and analogues as quality of life enhancers” (priority 2001, published 2002)

Experiment: Administration of N-Benzyl Piperazine (appetite suppressant / anti-depressant effect)
Type: in vivo
Details: administration of the compound; no test details given
Source text: This Patent description is of the use of N-Benzyl Piperazine and Analogues as Quality of Life Enhancers. Administration of N-Benzyl Piperazine has shown to be effective as an appetite suppressant and as a mild anti-depressant. Yeah though it be known that N-Benzyl Piperazine is a CNS stimulant and that stimulants usually are appetite suppressants, it was unknown and unobvious that the binding affinities for the serotonin receptor would be in “perfect” harmony with the norepinephrine receptor to eliminate the side effects of nervousness and the like. It was also unobvious that the increased levels of serotonin and norepinephrine would facilitate individuals in their daily lives to accomplish goals. That is why it is referred to as a Quality of Life Enhancer. Quality of Life Enhancer is defined as a weight loss supplement, appetite suppressant, anti-depressant, cognition enhancer or diet supplement.
Administration of the compounds is usually in the form of their pharmaceutically acceptable acid addition salts. Doses are within the range if 10 mg to 300 mg per day, but usually are in pills of 75 mg two times a day. Once desired effect is attained 75 mg per day is sufficient.

Which “effectiveness as a mild anti-depressant” value does the source give for `c1ccc(CN2CCNCC2)cc1` [N-Benzyl Piperazine, 1-benzylpiperazine] here?
Its value is “effective”.
